Assay results taken from patent US20090176817A1, “Method of Treatment of Diarrhea-Predominant Irritable Bowel Syndrome in a Subject” (priority 2005, published 2009).
Read-outs that look alike come from different tables or passages of the source. Marks after values point to notes of the source that are not given here.

How the values were obtained:
healthy subjects = conditions: in vivo
Protocol: In a randomized, double-blind, placebo-controlled, 2-way crossover study in 9 male and 9 female healthy subjects (ITT population, aged 21-39 years), subjects were randomized to receive 2 treatments (cilansetron 16 mg tablet and placebo) during the 2 treatment periods. During each treatment period, subjects received a single dose of their assigned treatment on the first day (Day 1), after which they received the same treatment TID for 4 days (Days 2-5). There was a 10-day washout period between treatment periods. Subjects were fasted for at least 2 hours before and following each dose, and heavy physical activity was restricted. Serial 12-lead ECGs was recorded up to 24 hours following dosing on Day 1 (single dose) and on the last day (Day 5) of each treatment period. Heart rate and ECG intervals (RR, PR, QRS, and QT) were measured electronically, but were manually verified and corrected if needed by the investigator. QT intervals were corrected (QTc) electronically for heart rate using the Bazett's correction. Mean and maximum QTc intervals were calculated over different time intervals postdose and were compared between treatments using an ANOVA accounting for sequence, gender, subject within sequence and gender, period, and treatment effects.

[1] = test system: non-constipated IBS subjects; assay: Study S241.2.112: Phase II dose-ranging efficacy; format: in vivo, human
Protocol: Study S241.2.112 was a Phase II, double-blind, placebo-controlled, randomized, multicenter parallel-group, dose-ranging study to investigate the efficacy and safety of cilansetron in non-constipated subjects with irritable bowel syndrome. The study was conducted in 51 study centers in the U.S. A total of at least 88 subjects were planned per treatment group evaluable for efficacy, in total 440 to complete the study; 975 subjects were screened; 490 were randomized and 481 analyzed for safety.
Diagnosis and main criteria for inclusion were IBS subjects satisfying the Rome criteria (1992) and minimum abdominal pain/discomfort, stool frequency and consistency determined during the run-in period. Subjects were treated with cilansetron 1 mg, 2 mg, 8 mg, and 16 mg tablets given orally TID or matching placebo tablets given orally TID for 12 weeks.
Efficacy was evaluated by weekly global questions concerning adequate relief of IBS symptoms (abdominal pain/discomfort, abnormal bowel habits). A responder is a subject who responded “Yes” at least 50% of the time after randomization, with a minimum treatment duration of four weeks.

clinical = conditions: male, human, in vivo
Protocol: The single- and multiple-dose pharmacokinetics of cilansetron 8 mg administered intravenously have been studied in a randomized, double-blind, placebo controlled, parallel group study in 12 male subjects (10 subjects received cilansetron 8 mg and 2 received placebo, administered as a 30-minute infusion). […] Doses on pharmacokinetic days were administered under fasted conditions. […] Renal elimination was again observed to be negligible (≦1% of dose).

[2] = test system: diarrhea-predominant IBS subjects; format: in vivo, human; parameters: key to Daily stool consistency score, mean change from Baseline at end of treatment / Mean stool consistency score at end of treatment / Stool consistency, mean change from rerandomization Baseline: stool consistency on a seven-point daily diary scale
Text: Studies S24 1.3.OO6, S24 1.3.0 1 1, and S24 1.3.009 used the following efficacy measurements: • The subjects answered the following three questions with “yes” or “no” using a phone diary at the end of each week: • a) During the last week, did you experience adequate relief of your IBS symptoms, such as abdominal pain, abdominal discomfort, abnormal bowel habits? • b) During the last week, did you experience adequate relief of your abdominal pain and/or discomfort? • c) During the last week, did you experience adequate relief of your abnormal bowel habits? • The subjects rated the following symptoms using the phone diary at the end of each day: • abdominal pain/discomfort (five-point scale); • stool consistency (seven-point Bristol Stool Scale); • stool frequency (number of bowel movements each day); • urgency (five-point scale); • straining (yes or no); • feeling of incomplete defecation (yes or no); • bloating or feeling of abdominal distension (five-point scale). • In Studies S241 A006 and S241.3.009, subjects completed the IBS-QOL Survey at Baseline (Day 1) and at the end of treatment. In Study S24 1.3.0 1 1, subjects completed the IBS-QOL Survey at Baseline (Day 1), at the end of the three-month treatment period, and at the end of rerandomized treatment.
Other secondary efficacy parameters for all three studies included: • Responder rate for the weekly diary questions on adequate relief at each month, where a responder for a month (monthly responder) was defined as a subject who answered the weekly question with “yes” at least twice for that month. The responder rate was the percentage of responders within a treatment group. The all-month responder rate for the weekly diary questions on adequate relief was also evaluated, where an all-month responder was defined as a subject who answered the weekly question with “yes” at least twice for each month. The all-month responder rate was the percentage of all-month responders within a treatment group; • Adequate relief rate for the weekly diary questions was calculated for each subject as the number of weekly assessments with adequate relief (“yes”) divided by the total number of weekly assessments; • Percentage of subjects with adequate relief for the weekly diary questions at each week; • Daily diary questions regarding abdominal pain/discomfort (five-point scale), stool consistency (seven-point scale), stool frequency (number of bowel movements each day), straining (yes or no), urgency (five-point scale), feeling of incomplete evacuation (yes or no), and bloating or feeling of abdominal distention (five-point scale); • QOL data assessed by the IBS-QOL questionnaire; and • Question to determine the interruption of activities.

[3] = both, human, in vivo
Protocol: The effect of renal impairment on the pharmacokinetics of cilansetron was evaluated in a study excluding subjects with end-stage renal disease, and utilizing a single-center, open-label, multiple-dose, parallel group study in 13 male and 9 female subjects, aged 33-74 years. […] Healthy subjects were matched to renally-impaired subjects with respect to age, weight, gender, and smoking status. All subjects received oral cilansetron 2 mg TID on Days 1 to 5, and a single dose on the morning of Day 6. Blood samples for measurement of plasma pharmacokinetics of cilansetron and its 4-hydroxy metabolites were collected up to 24 hours following dosing on Day 6, and log-transformed pharmacokinetic parameters for these analytes were statistically compared between study groups. Serum concentrations of unbound cilansetron and its 4-hydroxy metabolites were also measured prior to dosing and at 1 and 1.5 hours postdose on Day 6.

Cc1nccn1C[C@H]1CCc2c(c3cccc4c3n2CCC4)C1=O [Cilansetron, (R)-(−)-4,5,6,8,9,10-hexahydro-10-[(2-methyl-1H-imidazol-1-yl)methyl]-11H-pyrido-[3,2,1-jk]-carbazol-11-one]
Effect on mean or maximum QTc interval (Bazett's correction) (healthy subjects): no effect | Responder rate better than placebo ([1]; 1 mg TID): 22% | Responder rate better than placebo ([1]; 1 mg, females): 26% | Responder rate higher than placebo ([1]; 2 mg TID): 13% | Responder rate higher than placebo ([1]; 8 mg TID): 15% | Responder rate better than placebo ([1]; 16 mg TID): 22% | Intersubject % CV for AUC (clinical): 31-34% | Intrasubject % CV (clinical): 18% | Renal elimination (clinical): ≤ 1 % of dose | % Dose (urine) (clinical; iv): 0.44 (70) % | Linearity Ratio (clinical; iv): 118% | DN-AUC (clinical; iv, 8 mg): 22.8 (31) ng · h/mL | AUC (clinical; iv, 8 mg, AUC): 182 ng·h/mL | clearance (clinical; iv, 8 mg, CL): 792 mL/min | CL renal (clinical; iv, 8 mg, CLr): 3.29 mL/min | clearance (clinical; iv, 8 mg, Systemic plasma clearance): 800 mL/min | half-life (clinical; iv, 8 mg, T½): 1.7 h | Mean number of stools per day at end of treatment ([2]; 2 mg TID): 2.41 stools per day | Abdominal pain/discomfort, mean change from rerandomization Baseline ([2]; C/C): −0.09 | Bloating, mean change from rerandomization Baseline ([2]; C/C): −0.05 | Incomplete evacuation, mean change from Rerandomization Baseline ([2]; C/C): 0.01 | Stool consistency, mean change from rerandomization Baseline ([2]; C/C): −0.09 | Stools per day, mean change from rerandomization Baseline ([2]; C/C): −0.02 | Urgency, mean change from rerandomization Baseline ([2]; C/C): −0.05 | Abdominal pain/discomfort, mean change from rerandomization Baseline ([2]; C/P): 0.16 | Bloating, mean change from rerandomization Baseline ([2]; C/P): 0.16 | Incomplete evacuation, mean change from Rerandomization Baseline ([2]; C/P): 0.05 | Stool consistency, mean change from rerandomization Baseline ([2]; C/P): 0.55 | Stools per day, mean change from rerandomization Baseline ([2]; C/P): 0.22 | Urgency, mean change from rerandomization Baseline ([2]; C/P): 0.25 | Abdominal pain/discomfort, mean change from rerandomization Baseline ([2]; P/C): −0.08 | Bloating, mean change from rerandomization Baseline ([2]; P/C): −0.03 | Incomplete evacuation, mean change from Rerandomization Baseline ([2]; P/C): −0.02 | Stool consistency, mean change from rerandomization Baseline ([2]; P/C): −0.84 | Stools per day, mean change from rerandomization Baseline ([2]; P/C): −0.31 | Urgency, mean change from rerandomization Baseline ([2]; P/C): −0.27 | Median rate of urgency-free days ([2]; end of treatment): 0.25 | Median rate of pain-free days ([2]; end of treatment (last two weeks)): 0.15 | Bloating or abdominal distention score, mean change from Baseline at end of treatment ([2]; in vivo): −0.43 | Daily abdominal pain/discomfort score, mean change from Baseline at end of treatment ([2]; in vivo): −0.69 | Daily stool consistency score, mean change from Baseline at end of treatment ([2]; in vivo): −1.02 | Daily urgency score, mean change from Baseline at end of treatment ([2]; in vivo): −0.78 | Feeling of incomplete evacuation, mean change from Baseline at end of treatment ([2]; in vivo): −0.20 | Mean stool consistency score at end of treatment ([2]; in vivo): 4.28 | Mean straining, mean change from Baseline at end of treatment ([2]; in vivo): 0.05 | Stools per day, mean change from Baseline at end of treatment ([2]; in vivo): −0.91 | Median rate of pain-free days ([2]; three-month period): 0.22 | Median rate of urgency-free days ([2]; three-month period): 0.31 | AUC(0-τ) ratio Mild/Healthy [3]: 71 (38, 132) % | AUC(0-τ) ratio Moderate/Healthy [3]: 49 (25, 95) % | AUC(0-τ) ratio Renal Combined/Healthy [3]: 76 (47, 124) % | AUC(0-τ) ratio Severe/Healthy [3]: 130 (66, 254) % | CL/F ratio Mild/Healthy [3]: 141 (76, 264) % | CL/F ratio Moderate/Healthy [3]: 206 (105, 403) % | CL/F ratio Renal Combined/Healthy [3]: 131 (81, 213) % | CL/F ratio Severe/Healthy [3]: 77 (39, 151) % | Cmax ratio Mild/Healthy [3]: 83 (50, 140) % | Cmax ratio Moderate/Healthy [3]: 55 (32, 96) % | Cmax ratio Renal Combined/Healthy [3]: 90 (60, 134) % | Cmax ratio Severe/Healthy [3]: 156 (89, 272) % | T½ ratio Mild/Healthy [3]: 85 (63, 114) % | T½ ratio Moderate/Healthy [3]: 65 (47, 89)* % | T½ ratio Renal Combined/Healthy [3]: 78 (62, 99) % | T½ ratio Severe/Healthy [3]: 87 (64, 120) % | Tmax ([3]; 2 mg): 1.13 h
